Reference: publication PMC10252509, “Study on the In Silico Screening and Characterization, Inhibition Mechanisms, Zinc-Chelate Activity, and Stability of ACE-Inhibitory Peptides Identified in Naked Oat Bran Albumin Hydrolysates” (Foods, 2023)
pIC50: −log10 of the molar value. Where no end group is shown, it is not given here.

What was measured:
[1] = Zinc solubility of peptide-Zn complexes during simulated gastrointestinal digestion; conditions: intestinal phase, from 120 to 240 min; PAR method
[2] = Zn-chelating ability (4-(2-Pyridinazo)-resorcinol colorimetric method); type: physicochemical; conditions: 350 μg sample, zinc sulfate 0.25 mmol/L, HEPES-KOH, DTT, 37 °C, 12 min; PAR method, 500 nm; reduction of zinc ions per mass of sample; mean ± SD, n at least 3
Method: NOBAH peptides (350 μg), 0.5 mL zinc sulfate solution (0.25 mmol/L), 0.5 mL DTT (8 mmol/L), 1 mL HEPES-KOH buffer (100 μmol/L), and 8 mL dH2O were mixed thoroughly. After stirring at 37 °C and 175 r/min for 12 min, 1 mL of reaction solution was sucked out and used for zinc concentration determination using the 4-(2-Pyridinazo)-resorcinol method. The standard regression curve of zinc concentration (x, μg/mL) with the absorbance at 500 nm (y) was y = 0.0901n(x) + 0.1012, R^2 = 0.9802 [27]. The zinc chelation rate of the sample was defined as the reduction of zinc ions in the reaction solution per mass of the sample (mg/g).
Amino acid sequence identification was conducted on a Q Exactive hybrid quadrupole orbitrap mass spectrometer (Thermo Fisher, Bremen, Germany) according to the description of Li et al.. Peak-Studio-7.5-De-Novo™ software (Bioinformatics Solutions, Inc., Waterloo, ON, Canada) was employed to analyze data from the mass spectrometer. The National Center for Biotechnology Information Database (Bethesda, MD, USA) was used for the verification of the obtained sequences. The PAR colorimetric method was employed to measure the Zn-chelating ability of the obtained sequences. Potential antihypertensive effects were predicted using the database AHTPDB [29]. […] Moreover, the physicochemical characteristics of the obtained peptides were analyzed with the database AHTPDB.

[3] = molecular target: T1, ACE (Oryctolagus cuniculus, UniProt P12822); assay: ACE inhibition capacity (HHL substrate, hippuric acid at 228 nm); type: biochemical; conditions: synthesized peptide; ACE 25 mU, HHL 8.3 mmol/L, 37 °C, 60 min, absorbance 228 nm; from regression of inhibition vs concentration; n at least 3; read-out: ACE-inhibitory activity (IC50)
T1 construct: purchased Sigma (St. Louis, MO, USA)
T1 sequence (P12822 34-1310): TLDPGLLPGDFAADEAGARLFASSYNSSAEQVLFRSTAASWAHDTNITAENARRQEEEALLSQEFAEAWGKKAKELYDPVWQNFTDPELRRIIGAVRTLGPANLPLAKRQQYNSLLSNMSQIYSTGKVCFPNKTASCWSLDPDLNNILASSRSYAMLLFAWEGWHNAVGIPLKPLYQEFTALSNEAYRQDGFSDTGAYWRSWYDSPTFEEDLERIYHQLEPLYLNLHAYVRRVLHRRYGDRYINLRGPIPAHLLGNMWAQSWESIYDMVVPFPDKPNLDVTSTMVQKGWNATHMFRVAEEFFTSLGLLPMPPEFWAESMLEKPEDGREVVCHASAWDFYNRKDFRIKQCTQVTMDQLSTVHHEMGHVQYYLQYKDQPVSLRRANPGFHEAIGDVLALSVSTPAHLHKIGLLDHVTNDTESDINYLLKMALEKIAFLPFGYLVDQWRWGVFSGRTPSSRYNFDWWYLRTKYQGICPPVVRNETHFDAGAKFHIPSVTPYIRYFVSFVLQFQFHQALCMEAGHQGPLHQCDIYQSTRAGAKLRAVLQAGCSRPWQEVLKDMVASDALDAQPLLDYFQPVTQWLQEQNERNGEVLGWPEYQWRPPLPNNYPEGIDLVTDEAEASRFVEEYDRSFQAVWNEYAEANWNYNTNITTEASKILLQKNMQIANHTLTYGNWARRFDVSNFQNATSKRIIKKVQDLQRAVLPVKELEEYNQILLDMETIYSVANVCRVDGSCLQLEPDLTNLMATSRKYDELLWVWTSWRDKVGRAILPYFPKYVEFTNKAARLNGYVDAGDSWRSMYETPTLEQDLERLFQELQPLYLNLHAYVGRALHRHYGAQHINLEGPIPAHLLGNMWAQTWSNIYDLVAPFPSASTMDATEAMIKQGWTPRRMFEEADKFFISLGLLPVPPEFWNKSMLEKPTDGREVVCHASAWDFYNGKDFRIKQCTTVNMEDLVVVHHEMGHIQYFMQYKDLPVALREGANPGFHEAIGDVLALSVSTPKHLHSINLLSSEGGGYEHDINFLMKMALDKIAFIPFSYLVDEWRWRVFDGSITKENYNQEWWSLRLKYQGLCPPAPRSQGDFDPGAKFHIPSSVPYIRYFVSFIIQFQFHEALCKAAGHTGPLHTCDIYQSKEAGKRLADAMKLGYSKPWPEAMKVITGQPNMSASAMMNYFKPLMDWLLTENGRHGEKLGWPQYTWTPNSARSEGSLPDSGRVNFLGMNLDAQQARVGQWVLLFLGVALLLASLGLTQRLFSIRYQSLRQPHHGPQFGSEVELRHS
Method: Briefly, ACE (25 mU) was pre-incubated at 37 °C for 10 min. Then, ACE (75 µL), 225 µL of HHL (8.3 mmol/L), and peptide solution (75 µL) were mixed and stirred at 75 r/min and 37 °C for 60 min [28]. The reaction was stopped through the addition of 0.375 mL of HCl (1 mol/L). Next, 2.1 mL of ethyl acetate was added to extract the produced hippuric acid. After centrifugation at 14,000× g for 150 s, 1 mL of the upper solution (ethyl acetate extraction) was transferred into a glass test tube and heated at 120 °C for 32 min. Then, deionized water (1 mL) was added and determined at 228 nm. The control group was subjected to the same procedures but without samples. The inhibition ability of the samples toward ACE was defined as the percentage of the difference in absorbance at 228 nm between the sample and control compared to the absorbance of the control at 228 nm. The concentration of peptides needed to inhibit half of ACE activity was defined as IC50.

[4] = test system: ACE; parameters: method as in 2 sources, one per row (each row's own in cited_ref): ref [24] = [24]; PMID 32220144; doi:10.1111/1750-3841.15115; 24. Zheng Y. Wang X. Zhuang Y. Li Y. Shi P.Q. Tian H. Li X.T. Chen X. Isolation of novel ACE-inhibitory peptide from naked oat globulin hydrolysates in silico approach: Molecular docking, in vivo anti ||| ref [4],[35] = [4]; doi:10.1016/j.lwt.2022.114008; 4. Renjuan L. Xiuli Z. Liping S. Yongliang Z. Identification, in silico screening, and molecular docking of novel ACE inhibitory peptides isolated from the edible symbiot Boletus griseus-Hypomyces chr || [35]; doi:10.1016/j.lwt.2022.113196; 35. Wei G. Zhao Q. Wang D. Fan Y. Shi Y. Huang A. Novel ACE inhibitory, antioxidant and α-glucosidase inhibitory peptides identified from fermented rubing cheese through peptidomic and molecular docki; conditions: literature comparison; ref [4],[35]; read-out: ACE inhibition IC50; cited from earlier work

pIC50 [3]	Compound	pIC50 [4]	other results
	O=C([O-])[C@H](O)[C@@H](O)[C@H](O)[C@H](O)CO.O=C([O-])[C@H](O)[C@@H](O)[C@H](O)[C@H](O)CO.[Zn+2] [zinc gluconate, Zinc gluconate]		Zinc solubility compared with zinc sulfate [1]: higher zinc solubility than that of zinc sulfate
	GTTGGMGT [peptide identified in NOBAH-6-D]		Zinc chelating capacity [2]: 3.36 ± 0.16 e mg/g
3.49	GYHGH [GYHGH, Gly-Tyr-His-Gly-His]		
	LFRPE	4.95	
	QPHQPL [peptide identified in rubing cheese]	3.33	
3.61	QYVPF [QYVPF, Gln-Tyr-Val-Pro-Phe]		
